# Patent US5945436A, “Pyridylmethyl nitriles, amides and thioamides useful as fungicides” (Uniroyal Chemical Company, Inc., priority 1997, dated 1999)
# Experiments:
# Erysiphe graminis [1] = assay: Powdery mildew of barley, systemic root uptake (BMS); format: in vivo; conditions: 45 ml of 250 mg/l, 8 days after inoculation
# Experimental: Compositions containing Compounds Nos. 1-81 were prepared by dissolving 0.24 grams of each of the compounds in 8 ml of acetone or other suitable inert solvent. Each of the resultant solutions was treated with 3 drops of TWEEN 20 (ethoxylated ethylene sorbitan monolaurate, a non-ionic surfactant)(I.C.I.), and water was added to form an emulsion. The degree of dilution with water was dictated by the desired concentration of the compound in the composition. The greater the quantity of water added, the lower the concentration of the compound in the composition, reported in milligrams per liter (mg/l) […] Upon reaching these ages, the plants were either treated with 45 ml of 250 mg/l concentration of the compositions of Example 9 or were left untreated. The untreated plants were used as controls. The 45 ml compositions saturated the soil of the treated pots without significant loss through drainage into the saucers below the pots. Twenty-four hours after the treatment with the compositions, both the barley and cucumber plants in all the pots, those treated and those untreated, were inoculated with powdery mildew fungus. This was accomplished by tapping leaves of previously infected barley and cucumber plants over the treated and untreated pots containing the barley and cucumber plants, respectively, to distribute spores of the fungus over the plants tested. […] Intermediate ratings were assigned depending on the degree of disease. […] The results of the powdery mildew disease control of barley are reported under the heading of "BMS". The results for cucumber mildew control are reported under the heading "CMS".
# Uromyces phaseoli = assay: Bean rust fungus eradicant test (URO PHA); format: in vivo; conditions: pinto bean, eradicant spray 2 days after inoculation, 1,000 mg/l; for pest or weed control at 1000 µg/mL: Uromyces phaseoli, 216 h, read-out: Percent Reduction of Disease, URO PHA
# Experimental: Compositions containing Compounds Nos. 1-81 were prepared by dissolving 0.24 grams of each of the compounds in 8 ml of acetone or other suitable inert solvent. Each of the resultant solutions was treated with 3 drops of TWEEN 20 (ethoxylated ethylene sorbitan monolaurate, a non-ionic surfactant)(I.C.I.), and water was added to form an emulsion. The degree of dilution with water was dictated by the desired concentration of the compound in the composition. The greater the quantity of water added, the lower the concentration of the compound in the composition, reported in milligrams per liter (mg/l) A plurality of pots were each planted with two pinto bean plants, Phaseolus vulgaris, each, susceptible to rust disease. When the plants were 7 days old, at the primary leaf stage of growth, they were all sprayed with a suspension containing 20,000 spores of the bean rust fungus, Uromyces phaseoli, per ml. All the pots were then incubated in a controlled environmental chamber, maintained at 99% humidity and 21° C., for 24 hours to allow infection to occur. The plants were then removed from the incubator and allowed to dry. Two days after inoculation each of the infected plants was then either sprayed with one of the compositions of Example 9, at a dosage of 1,000 mg/l, or left unsprayed. The unsprayed plants acted as controls. All of the sprayed and unsprayed plants were then placed in a greenhouse at 21° C. for nine days to allow the disease to develop. […] Control of disease was determined by comparing treated plants with the untreated controls. The results, expressed as percent reduction of disease, are summarized in Table II under the heading "URO PHA".
# Erysiphe graminis [2] = assay: Powdery mildew in barley, foliar application (ERY GRA); format: in vivo; conditions: foliar, 1,000 mg/l, 8 days after inoculation; for pest or weed control at 1000 µg/mL: Blumeria graminis, foliar, 192 h, read-out: Percent Reduction of Disease, ERY GRA
# Experimental: Compositions containing Compounds Nos. 1-81 were prepared by dissolving 0.24 grams of each of the compounds in 8 ml of acetone or other suitable inert solvent. Each of the resultant solutions was treated with 3 drops of TWEEN 20 (ethoxylated ethylene sorbitan monolaurate, a non-ionic surfactant)(I.C.I.), and water was added to form an emulsion. The degree of dilution with water was dictated by the desired concentration of the compound in the composition. The greater the quantity of water added, the lower the concentration of the compound in the composition, reported in milligrams per liter (mg/l) Ten plants of "Robust" variety barley were planted in each of a plurality of pots. Each pot was then either sprayed with one of the compositions of Example 9, at a composition concentration of 1,000 mg/l, or left unsprayed. For each pot sprayed, one pot was left unsprayed as a control. After the leaves of the sprayed pots were dried, the sprayed pots and the unsprayed control pots were placed in a greenhouse maintained at 21° C. All the pots were then inoculated with barley powdery mildew fungus, Erysiphe graminis. This inoculation was accomplished by distributing spores of the fungus over the leaves of the plants to be tested from plants which had previously been infected with the mildew disease. […] Again, percent control was computed by comparing the treatment scores with the scores of the untreated controls. The results are summarized in Table II under the heading "ERY GRA".
# Septoria nodorum = assay: Fungal growth inhibition, treated disc on agar (SEP NOD); format: cell-based; conditions: disc dipped in 500 mg/l, 29° C.; for inhibition at 500 µg/mL: Parastagonospora nodorum, read-out: Percent Growth Inhibition, SEP NOD
# Rhizoctonia solani = assay: Fungal growth inhibition, treated disc on agar (RHI SOL); format: cell-based; conditions: disc dipped in 500 mg/l, 29° C.; for inhibition at 500 µg/mL: Rhizoctonia solani, read-out: Percent Growth Inhibition, RHI SOL
# Description: Filter paper discs, each 11 mm. in diameter, were dipped in each of the test solutions. The discs were allowed to air dry to drive off the acetone solvent. A number of untreated discs were used as controls.
# The treated and untreated discs were then placed on agar plates and one of the following fungus species: Septoria nodorum (SEP NOD), Botrytis cinerea (BOT CIN), Fusarium oxysporum (FUS OXY), Pythium ultimum (PYT ULT), Rhizoctonia solani (RHI SOL), Colletotrichum gossypii (COL GOS), and Scierotinia minor (SCL MIN), was added to the center of each disc in the form of a culture plug with the fungus mat in contact with the paper of the test disc. Cercosporidium personatum (CER PER), was added to discs as a spore suspension (20,000 spores/ml) to the disc (two drops of spore suspension per disc), rather than a mycelial culture plug. The plates were then incubated at 29° C. in an oven.
# With the exception of the discs containing Cercosporidium personatum, the discs were evaluated by first measuring the radius from the center of the fungus colony on the treated discs and on the untreated discs. Percent growth inhibition of each of the compounds tested was determined as a function of the difference between the radius of the fungus colony on the treated disc versus the radius of the fungus colony on the untreated disc.
# Botrytis cinerea = assay: Fungal growth inhibition, treated disc on agar (BOT CIN); format: cell-based; conditions: disc dipped in 500 mg/l, 29° C.; for inhibition at 500 µg/mL: Botrytis cinerea, read-out: Percent Growth Inhibition, BOT CIN
# Fusarium oxysporum = assay: Fungal growth inhibition, treated disc on agar (FUS OXY); format: cell-based; conditions: disc dipped in 500 mg/l, 29° C.; for inhibition at 500 µg/mL: Fusarium oxysporum, read-out: Percent Growth Inhibition, FUS OXY
SMILES,"Percent Reduction of Disease, BMS (Erysiphe graminis [1])",pest or weed control at 1000 µg/mL (Uromyces phaseoli),pest or weed control at 1000 µg/mL (Erysiphe graminis [2]),inhibition at 500 µg/mL (Septoria nodorum),inhibition at 500 µg/mL (Rhizoctonia solani),inhibition at 500 µg/mL (Botrytis cinerea),inhibition at 500 µg/mL (Fusarium oxysporum),"Percent Reduction of Disease, URO PHA (Uromyces phaseoli)","Percent Growth Inhibition, SEP NOD (Septoria nodorum)","Percent Growth Inhibition, RHI SOL (Rhizoctonia solani)","Percent Growth Inhibition, BOT CIN (Botrytis cinerea)","Percent Reduction of Disease, ERY GRA (Erysiphe graminis [2])","Percent Growth Inhibition, FUS OXY (Fusarium oxysporum)"
N#CC(CCCF)(CCc1ccc(F)cc1)c1cccnc1 (stereo not shown) [Compound 64],20%,70%,0%,100%,20%,100%,100%,,,,,,
CC(C)CCC(C#N)(CCc1ccc(F)cc1)c1cccnc1 (stereo not shown) [Compound 49],0%,,100%,,,,65%,83%,100%,100%,100%,,
C=CCC(C#N)(CCCc1ccccc1OC)c1cccnc1 (stereo not shown) [Compound 70],40%,17%,92%,100%,28%,100%,25%,,,,,,
N#CC(CCF)(CCc1ccc(F)cc1)c1cccnc1 (stereo not shown) [Compound 53],100%,0%,100%,100%,75%,100%,100%,,,,,,
CCCCOc1ccc(CCC(C#N)(CCCC)c2cccnc2)cc1 (stereo not shown) [Compound 54],0%,35%,100%,100%,100%,100%,100%,,,,,,
Cc1ccc(CCC(C#N)(CCCC(F)(F)F)c2cccnc2)cc1 (stereo not shown) [Compound 79],92%,0%,100%,30%,35%,0%,46%,,,,,,
"CC(C)(C)c1ccc(CC(C#N)(Cc2ccc(C(C)(C)C)cc2)c2cccnc2)cc1 [B, reference compound]",10%,0%,15%,10%,15%,0%,0%,,,,,,
CCCCC(C#N)(Cc1ccc(C(C)(C)C)cc1)c1cccnc1 (stereo not shown) [Compound 19],35%,0%,100%,96%,91%,40%,100%,,,,,,
CCCCC(C#N)(CCCc1ccc(OC)cc1)c1cccnc1 (stereo not shown) [Compound 76],0%,67%,100%,100%,6%,100%,50%,,,,,,
CCCC(C#N)(CCc1ccccc1)c1ccncc1 (stereo not shown) [Compound 25],0%,17%,67%,19%,4%,55%,63%,,,,,,
CCOc1ccc(CCC(C#N)(CC(C)C)c2cccnc2)cc1 (stereo not shown) [Compound 43],0%,83%,92%,100%,48%,100%,100%,,,,,,
CCCCC(C#N)(CCc1ccc(OCCC)cc1)c1cccnc1 (stereo not shown) [Compound 69],0%,,,,,,,0%,100%,5%,70%,50%,30%
N#CC(CCCF)(CCc1ccccc1F)c1cccnc1 (stereo not shown) [Compound 66],100%,70%,50%,100%,45%,100%,100%,,,,,,
COc1ccc(CCC(C#N)(CC=C(C)C)c2cccnc2)cc1 (stereo not shown) [Compound 48],0%,83%,67%,100%,28%,100%,100%,,,,,,
C#CCC(C#N)(CCc1ccccc1)c1cccnc1 (stereo not shown) [Compound 4],35%,0%,70%,92%,82%,94%,100%,,,,,,
CCCCCC(CCc1ccc(F)cc1)(C(N)=O)c1cccnc1 (stereo not shown) [Compound 62],20%,35%,0%,0%,5%,0%,10%,,,,,,
CCCCOc1ccc(CCC(C#N)(CC(C)C)c2cccnc2)cc1 (stereo not shown) [Compound 58],0%,0%,90%,70%,5%,10%,40%,,,,,,
CCCCCC(C#N)(CCc1ccc(OC)cc1)c1ccccn1 (stereo not shown) [Compound 30],0%,,,,,,,100%,96%,10%,88%,100%,100%
CCCCCC(C#N)(CCc1ccccc1)c1cccnc1 (stereo not shown) [Compound 3],35%,100%,100%,86%,10%,100%,0%,,,,,,
CCCCC(C#N)(CCc1ccc(C)cc1)c1cccnc1 (stereo not shown) [Compound 34],0%,100%,100%,100%,,100%,100%,,,,,,
